From US8604016B2, “Heterocyclic inhibitors of glutaminase” (Calithera Biosciences Inc., priority 2011, dated 2013)

Experiments:
[1] = target: T1, recombinant form of Glutaminase 1 (GAC) (Homo sapiens, UniProt O94925); test: Recombinant Enzyme Assay - Time Dependence (60 minutes enzyme/compound preincubation); assay type: biochemical
Method: The enzyme/compound mix was sealed with sealing foil (USA Scientific) and allowed to incubate, with mild agitation, for 60 minutes at 20° C. Enzymatic reaction was started with the addition of 50 μL of substrate solution (50 mM Tris-HCl pH 8.0, 0.2 mM EDTA, 150 mM K2HPO4, 0.1 mg/ml BSA, 1 mM DTT, 20 mM L-glutamine, 2 mM NAD^+, and 10 ppm antifoam) and read in a Molecular Devices M5 plate reader at 20° C. The plate reader was configured to read absorbance (λ=340 nm) in kinetic mode for 15 minutes. Data was recorded as milli-absorbance units per minute and slopes were compared to a control compound and a DMSO-only control on the same plate. Compounds with slopes less than the DMSO control were considered inhibitors and plate variability was assessed using the control compound.

[2] = target: T1, recombinant form of Glutaminase 1 (GAC); test: Recombinant Enzyme Assay (GAC coupled to GDH, NADH absorbance, no preincubation); assay type: biochemical; settings: no preincubation; read-out: GAC Delta N2 IC50 no preinc
Method in brief: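 GAC (4 nM) in Tris-HCl pH 8.0 with 150 mM K2HPO4, EDTA, BSA, DTT, plus 4 units/ml GDH and 4 mM ADP, without preincubation. Absorbance at 340 nm was read kinetically for 15 min at 20° C. Slopes (mAU/min) were compared with DMSO-only and control-compound wells on the same plate.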

[3] = read-out: GAC Delta N2 IC50 60 min preinc
[4] = read-out: GAC Delta N2 IC50 60 min

Row | SMILES | IC50 [1, 3] [µM] | IC50 [2] [µM] | IC50 [1, 4] [µM]
1 | O=C(Nc1nnc(CCCCc2nnc(NC(=O)[C@@H](O)c3ccccc3)s2)s1)[C@@H](O)c1ccccc1 [Compound 92] | 0.14 | 0.38 | –
2 | O=C(Cc1cccc(Br)c1)Nc1nnc(CCSCCc2nnc(NC(=O)Cc3cccc(Br)c3)s2)s1 [Compound 270] | > 5 | 7.4 | –
3 | CC(C)(C)OC(=O)N1CCN(Cc2cccc(CC(=O)Nc3nnc(CCSCc4nnc(NC(=O)Cc5cccc(CN6CCN(C(=O)OC(C)(C)C)CC6)c5)s4)s3)c2)CC1 [Compound 275] | 0.15 | 2.2 | –
4 | O=C(Nc1nnc(CCCCc2nnc(NC(=O)C(O)c3cccc(Br)c3)s2)s1)C(O)c1cccc(Br)c1 (stereo not shown) [Compound 288] | 0.04 | 0.67 | –
5 | O=C(Nc1nnc(CCCCc2nnc(NC(=O)C(O)c3cccc(Cl)c3)s2)s1)C(O)c1cccc(Cl)c1 (stereo not shown) [Compound 306] | 0.031 | 0.52 | –
6 | CC(C(=O)Nc1ccc(CCCCc2nnc(NC(=O)C(O)c3cccc(Cl)c3)s2)nn1)c1ccccc1 (stereo not shown) [Compound 468] | – | – | 0.016
7 | O=C(Cc1ccccc1)Nc1ccc(CCCCc2nnc(NC(=O)Cc3cccc(OCc4ccccn4)c3)s2)nn1 [Compound 480] | – | – | > 20
8 | CC(C(=O)Nc1nnc(CCCCc2ccc(NC(=O)Cc3cccc(CNC(=O)OC(C)(C)C)c3)nn2)s1)c1ccccc1 (stereo not shown) [Compound 489] | – | – | 0.008
9 | CC(C)(C)OC(=O)NCc1cc(CC(=O)Nc2nnc(CCCCc3ccc(NC(=O)Cc4ccccc4)nn3)s2)ccc1F [Compound 492] | – | – | 0.006
10 | CC(C)(C)OC(=O)N1CCN(Cc2cc(CC(=O)Nc3nnc(CCCCc4ccc(NC(=O)Cc5ccccc5)nn4)s3)ccc2F)CC1 [Compound 493] | – | – | 0.019
11 | O=C(Cc1ccccc1)Nc1ccc(CCCCc2nnc(NC(=O)Cc3ccc(F)c(CN4CCNCC4)c3)s2)nn1 [Compound 494] | – | – | 0.019
12 | O=C(Cc1ccccc1)Nc1ccc(CCCCc2nnc(NC(=O)C(O)c3ccc(-c4ccccc4)cc3OCCO)s2)nn1 (stereo not shown) [Compound 504] | – | – | 0.007
13 | CC(C)(C)OC(=O)NCc1cccc(CC(=O)Nc2nnc(CCCCc3ccc(NC(=O)C(O)(CO)c4ccccc4)nn3)s2)c1 (stereo not shown) [Compound 507] | – | – | 0.013
14 | COC(C(=O)Nc1ccc(CCCCc2nnc(NC(=O)Cc3cccc(CNC(=O)OC(C)(C)C)c3)s2)nn1)c1ccccc1 (stereo not shown) [Compound 508] | – | – | 0.011
15 | COC(C(=O)Nc1nnc(CCCCc2ccc(NC(=O)Cc3cccc(CNC(=O)OC(C)(C)C)c3)nn2)s1)c1ccccc1 (stereo not shown) [Compound 509] | – | – | 0.01
16 | O=C(Cc1ccccc1)Nc1ccc(CCCCc2nnc(NC(=O)CC3=CN4CCCN=C4S3)s2)nn1 [Compound 511] | – | – | 0.58
17 | O=C(Cc1ccccc1)Nc1nnc(CCCCc2nnc(NC(=O)C(O)c3cccc(Cl)c3)s2)s1 (stereo not shown) [Compound 527] | 0.024 | 0.13 | –
18 | CC(=O)N1CCN(Cc2cc(CC(=O)Nc3nnc(CCCCc4ccc(NC(=O)Cc5ccccc5)nn4)s3)ccc2F)CC1 [Compound 528] | – | – | 0.007
19 | CC(C)(C)OC(=O)NCc1cccc(CC(=O)Nc2nnc(CCCCc3ccc(NC(=O)C4(C)COC(C)(C)OC4)nn3)s2)c1 [Compound 529] | – | – | 0.032
20 | Cc1ccccc1CC(=O)Nc1nnc(CCCCc2ccc(NC(=O)Cc3ccccc3Cl)nn2)s1 [Compound 535] | – | – | 0.007

Row | SMILES | IC50 [1, 3] [µM] | IC50 [2] [µM] | IC50 [1, 4] [µM]
21 | Cc1ccccc1CC(=O)Nc1nnc(CCCCc2ccc(NC(=O)Cc3ccccc3F)nn2)s1 [Compound 536] | – | – | 0.006
22 | CCCC(=O)OCN(C(=O)Cc1cccc(CNC(=O)OC(C)(C)C)c1)c1nnc(CCCCc2ccc(NC(=O)Cc3ccccc3)nn2)s1 [Compound 552] | – | – | > 20
23 | CC(C)Cc1ccc(C(C)C(=O)Nc2nnc(CCCCc3ccc(NC(=O)Cc4ccccc4)nn3)s2)cc1 (stereo not shown) [Compound 557] | – | – | 0.025
24 | O=C(Cc1ccccc1F)Nc1ccc(CCCCc2nnc(NC(=O)Cc3ccccc3Cl)s2)nn1 [Compound 566] | – | – | 0.006
25 | CCCC(=O)OCN(C(=O)C(CO)c1cccc(CNC(=O)OC(C)(C)C)c1)c1nnc(CCCCc2ccc(NC(=O)Cc3ccccc3)nn2)s1 (stereo not shown) [Compound 567] | – | – | 0.43
26 | CC(C(=O)Nc1nnc(CCCCc2ccc(NC(=O)Cc3ccccc3)nn2)s1)c1ccc(F)c(CNC(=O)OC(C)(C)C)c1 (stereo not shown) [Compound 568] | – | – | 0.009
27 | CN(Cc1cc(CC(=O)Nc2nnc(CCCCc3ccc(NC(=O)Cc4ccccc4)nn3)s2)ccc1F)C(=O)OC(C)(C)C [Compound 569] | – | – | 0.006
28 | CCCC(=O)OCN(C(=O)Cc1cccc(CC(=O)N2CCC(F)(F)CC2)c1)c1nnc(CCCCc2ccc(NC(=O)Cc3ccccc3)nn2)s1 [Compound 570] | – | – | 0.43
29 | CCOC(=O)NCc1cc(C(C)C(=O)Nc2nnc(CCCCc3ccc(NC(=O)Cc4ccccc4)nn3)s2)ccc1F (stereo not shown) [Compound 574] | – | – | 0.006
30 | CC(C(=O)Nc1nnc(CCCCc2ccc(NC(=O)Cc3cccc(CNC(=O)OCCF)c3)nn2)s1)c1ccccc1 (stereo not shown) [Compound 591] | – | – | 0.004
31 | CC(C(=O)Nc1ccc(CCCCc2nnc(NC(=O)Cc3ccccc3)s2)nn1)c1ccc(F)c(CN(C)C(=O)OC(C)(C)C)c1 (stereo not shown) [Compound 599] | – | – | 0.01
32 | CC(NC(=O)OC(C)(C)C)c1cccc(CC(=O)Nc2ccc(CCCCc3nnc(NC(=O)C(C)c4ccccc4)s3)nn2)c1 (stereo not shown) [Compound 603] | – | – | 0.009
33 | COC(C(=O)Nc1nnc(CCCCc2ccc(NC(=O)Cc3cccc(CNC(=O)CC(O)C(F)(F)F)c3)nn2)s1)c1ccccc1 (stereo not shown) [Compound 604] | – | – | 0.015
34 | COC(C(=O)Nc1nnc(CCCCc2ccc(NC(=O)Cc3cccc(CNC(=O)CC(C)(O)C(F)(F)F)c3)nn2)s1)c1ccccc1 (stereo not shown) [Compound 605] | – | – | 0.013
35 | CC(C(=O)Nc1nnc(CCCCc2ccc(NC(=O)Cc3cccc(CNC(=O)CC(O)C(F)(F)F)c3)nn2)s1)c1ccccc1 (stereo not shown) [Compound 606] | – | – | 0.007
36 | CC(C(=O)Nc1nnc(CCCCc2ccc(NC(=O)Cc3cccc(CNC(=O)CC(C)(O)C(F)(F)F)c3)nn2)s1)c1ccccc1 (stereo not shown) [Compound 607] | – | – | 0.007
37 | CC(C(=O)Nc1ccc(CCCCc2nnc(NC(=O)C(C)c3ccccc3)s2)nn1)c1ccccc1 (stereo not shown) [Compound 613] | – | – | 0.019
38 | CCCC(=O)OCN(C(=O)Cc1ccccc1)c1nnc(CCCCc2ccc(NC(=O)Cc3cccc(OC(F)(F)F)c3)nn2)s1 [Compound 629] | – | – | > 20
39 | CC(NC(=O)OC(C)(C)C)c1cc(CC(=O)Nc2nnc(CCCCc3ccc(NC(=O)Cc4ccccc4)nn3)s2)ccc1F (stereo not shown) [Compound 653] | – | – | 0.005
40 | CC(NC(=O)OC(C)(C)C)c1cc(CC(=O)Nc2ccc(CCCCc3nnc(NC(=O)Cc4ccccc4)s3)nn2)ccc1F (stereo not shown) [Compound 654] | – | – | 0.005
